Source: ChEMBL document CHEMBL2390855, “Labdane-type diterpenoids from the fruits of Vitex trifolia” (J Nat Prod, 2013)

Tests used:
Assay type in all cases: functional, cell-based
[1] = tested on: HL-60; test: Cytotoxicity against human HL60 cells after 72 hrs by MTT assay; conditions: HL-60, 72 h
[2] = tested on: HCT-116; test: Cytotoxicity against human HCT116 cells after 72 hrs by MTT assay; conditions: HCT-116, 72 h
[3] = tested on: ZR-75-30; test: Cytotoxicity against human ZR75-30 cells after 72 hrs by MTT assay; conditions: ZR-75-30, 72 h
[4] = tested on: A549; test: Cytotoxicity against human A549 cells after 72 hrs by MTT assay; conditions: A549, 72 h

Measured: IC50

CO[C@H]1C[C@@]2(CC[C@@]3(O2)[C@H](C)CC[C@H]2C(C)(C)[C@@H](OC(C)=O)CC[C@@]23C)[C@H](OC)O1 [VITEXTRIFOLIN B]
> 5 µg/mL: [1] | [2] | [3] | [4]

CO[C@@H]1C[C@@]2(CC[C@@]3(O2)[C@H](C)CC[C@H]2C(C)(C)[C@@H](OC(C)=O)CC[C@@]23C)[C@H](OC)O1 (relative stereo)
> 5 µg/mL: [1] | [2] | [3] | [4]

C[C@@H]1CC=C2C(C)(C)CCC[C@]2(C)[C@@]1(O)CCC1=CC(=O)OC1 (relative stereo)
> 5 µg/mL: [1] | [2] | [3] | [4]

CC(=O)O[C@@H]1C[C@@H](C)[C@](O)(CCC2=CC(=O)OC2O)[C@@]2(C)CCCC(C)(C)[C@H]12 (stereo partly drawn) [VITEAGNUSIN I]
> 5 µg/mL: [1] | [2] | [3] | [4]

CC(=O)O[C@@H]1C[C@@H](C)[C@]2(CC[C@]3(COC(=O)C3)O2)[C@@]2(C)CCCC(C)(C)[C@H]12 [PREVITEXILACTONE]
> 5 µg/mL: [1] | [2] | [3] | [4]

CC1=C(CC[C@@H](C)C(=O)CCC2=CC(=O)OC2)C(C)(C)CCC1
> 5 µg/mL: [1] | [2] | [3] | [4]

CC(=O)O[C@@H]1CC(C)=C(CCC2=CC(=O)OC2)[C@@]2(C)CCCC(C)(C)[C@H]12 (relative stereo)
> 5 µg/mL: [1] | [2] | [3] | [4]

C[C@@H]1C[C@@H](O)[C@H]2C(C)(C)CCC[C@]2(C)[C@@]1(O)CCC1=CC(=O)OC1
> 5 µg/mL: [1] | [2] | [3] | [4]

C[C@@H]1CC=C2C(C)(C)CCC[C@]2(C)[C@@]12CC[C@]1(COC(=O)C1)O2 (relative stereo)
> 5 µg/mL: [1] | [2] | [3] | [4]

CC(=O)O[C@@H]1C[C@@H](C)[C@](O)(CCC2=CC(=O)OC2)[C@@]2(C)CCCC(C)(C)[C@H]12 [VITEXILACTONE]
> 5 µg/mL: [1] | [2] | [3] | [4]

CC(=O)O[C@@H]1C[C@@H](C)[C@](O)(CCc2ccoc2)[C@@]2(C)CCCC(C)(C)[C@H]12 [ROTUNDIFURAN]
> 5 µg/mL: [1] | [2] | [3] | [4]

C[C@@H]1C[C@@H](O)[C@H]2C(C)(C)CCC[C@]2(C)[C@@]12CC[C@]1(COC(=O)C1)O2 (relative stereo)
> 5 µg/mL: [1] | [2] | [3] | [4]
